# In patent US12702660B2, “Method for treating cancer with an oral dosage form of an estrogen receptor-alpha inhibitor” (Eisai R&D Management Co., Ltd., priority 2019, dated 2026):
# Where two headings read alike, the source gives them in different places.
# Assay: Plasma PK of H3B-6545 capsules in fasted patients, phase 1 dose escalation
# Type: in vivo, human
# Settings: for Tlag: Median (Min, Max)
# Experimental: Blood samples were collected at the planned time points from each patient and centrifuged. The plasma portion of each sample was then transferred to a K2EDTA tube, which was then shipped to a bioanalytical lab for concentration measurement using LC-MS/MS. The concentration data were then analyzed using Phoenix® WinNonlin software to obtain PK parameters. The obtained PK parameters were further summarized using analytical software.
# Blood samples (approximately 5 mL each) were collected from human patients pre-dose and at various hourly time points post-dose. Plasma concentrations of H3B-6545 were determined using a validated high-performance liquid chromatography/tandem mass spectrometry (LC-MS/MS) method. The lower limit of quantification was 0.100 ng/mL.
# The PK Analysis Set included subjects who received H3B-6545 drug product in capsules or tablets and had sufficient evaluable plasma concentration data to derive at least 1 primary PK parameter in each treatment. Plasma concentrations of H3B-6545 (as free base) were tabulated and summarized at each nominal time using descriptive statistics (number of subjects, arithmetic mean with standard deviation [SD], coefficient of variation [CV %], geometric mean, median, minimum, and maximum) as appropriate. Individual and mean (±SD) plasma concentration-time profiles were provided for each treatment.
# Pharmacokinetic parameters of H3B-6545 were calculated using noncompartmental methods, using an appropriate model for plasma data and extravascular administration. The PK parameters included, but were not limited to, area under the curve to the time of the last quantifiable concentration (AUC0-t), maximum concentration (Cmax), and time at which the maximum concentration occurred (tmax). If data permitted, the area under the plasma concentration-time curve extrapolated to infinity (AUC0-inf), terminal elimination half-life (t1/2), apparent total body clearance (CL/F), total systemic clearance after oral administration at steady state (CLss/F), apparent volume of distribution during the terminal phase (Vz/F), apparent steady-state volume of distribution (Vss), accumulation ratio for Cmax (RCmax) and accumulation ratio of AUC0-24 (RAUC) were also derived.
# Methods were used to analyze whether H3B-6545 inactivates both wild-type and mutant ERα by targeting cysteine 530 and enforcing a unique antagonist conformation. Methods: Women with locally advanced or metastatic HR+BC are treated (tx) with H3B-6545 drug product administered once daily orally by capsule over a 28 day cycle after progression on at least one hormonal therapy and at least one additional therapy/regimen. Dose escalation uses a 3+3 design with the option to backfill previously cleared doses and allows for intrapatient dose escalation. This example explored the safety, pharmacokinetics and pharmacodynamics of H3B-6545 in women with HR+BC to identify a recommended subsequent dose for testing.
# • H3B-6545 administered once daily orally over a 28 day cycle. • Dose escalation using a standard 3+3 study design using dose cohorts of 100, 200, 300, 450, and 600 mg QD. • Patients allowed to backfill previously cleared doses. • Intra-patient dose escalation allowed after completion of Cycle 3. Results (as of Apr. 20, 2019) Patient Population: • 46 patients were treated with H3B-6545 at doses of 100 to 600 mg QD. • 42 (91.3%) patients received a prior CDK4/6 inhibitor and 32 (69.6%) prior fulvestrant. • 30 (65.2%) patients received ≥3 prior anti-cancer therapy lines in the advanced/metastatic setting.
# The clinical trial of Example 3 was continued and PK evaluations (of this Example 4) were made at a later date on the basis of a larger patient population. The summary of Tables 1 in Analysis of Pharmacokinetic (PK) of Capsules in Fasted Patients and 2 show PK parameters and profiles of human patients receiving capsules of H3B-6545 drug product prepared as in Example 1. […]
# [1] = Cycle 1 Day 15, 100 mg QD capsules, fasted patients, Geometric Mean (GeoCV %)
# [2] = Cycle 1 Day 15, 100 mg QD capsules, fasted patients, normalized from Table 11
# [3] = Cycle 1 Day 15, 200 mg QD capsules, fasted patients, Geometric Mean (GeoCV %)
# [4] = Cycle 1 Day 15, 200 mg QD capsules, fasted patients, normalized from Table 11
# [5] = Cycle 1 Day 15, 300 mg QD capsules, fasted patients, Geometric Mean (GeoCV %)
# [6] = Cycle 1 Day 15, 300 mg QD capsules, fasted patients, normalized from Table 11
# [7] = Cycle 1 Day 15, 450 mg QD capsules, fasted patients, Geometric Mean (GeoCV %)
# [8] = Cycle 1 Day 15, 450 mg QD capsules, fasted patients, normalized from Table 11
# [9] = Cycle 1 Day 15, 600 mg QD capsules, fasted patients, Geometric Mean (GeoCV %)
# [10] = Cycle 1 Day 15, 600 mg QD capsules, fasted patients, normalized from Table 11
# [11] = Cycle 1 Day-Dose Escalation, 100 mg QD capsules, fasted patients, normalized from Table 9
# [12] = Cycle 1 Day-Dose Escalation, 200 mg QD capsules, fasted patients, normalized from Table 9
# [13] = Cycle 1 Day-Dose Escalation, 300 mg QD capsules, fasted patients, normalized from Table 9
# [14] = Cycle 1 Day-Dose Escalation, 450 mg QD capsules, fasted patients, normalized from Table 9
# [15] = Cycle 1 Day-Dose Escalation, 600 mg QD capsules, fasted patients, normalized from Table 9
# [16] = female, human, plasma, oral, 100 mg, Cycle 1 Day 1, 100 mg QD capsules, fasted patients, Geometric Mean (GeoCV %)
smiles,measurement,setting,value
"CN(C)C(=O)/C=C/CNCCOc1ccc(/C(=C(/CC(F)(F)F)c2ccccc2)c2ccc3[nH]nc(F)c3c2)cn1 [H3B-6545, (E)-N,N-dimethyl-4-[2-[5-[(Z)-4,4,4-trifluoro-1-(3-fluoro-1H-indazol-5-yl)-2-phenylbut-1-enyl]pyridin-2-yl]oxyethylamino]but-2-enamide]",plasma exposure versus dose,"100 mg to 600 mg, Cycle 1, Day 1, preliminary PK analyses (FIG. 1)",roughly dose-proportional increase
same,"tmax and half-life, dependence on dose and time","100 mg to 600 mg, preliminary PK analyses (FIG. 1)",independent of dose and time
same,plasma concentration versus dose,"100 to 600 mg, as of Apr. 20, 2019 (FIG. 1)",increased with dose
same,CL/F,"Cycle 1 Day 1, 100 mg QD capsules, fasted patients, Geometric Mean (GeoCV %)",46.9 (92.2); 6 L/h
same,Tlag,"Cycle 1 Day 1, 100 mg QD capsules, fasted patients",0 (0-1); 6 h
same,CL/F,"Cycle 1 Day 1, 200 mg QD capsules, fasted patients, Geometric Mean (GeoCV %)",37.9 (68.3); 8 L/h
same,Tlag,"Cycle 1 Day 1, 200 mg QD capsules, fasted patients",0 (0-0.6); 12 h
same,CL/F,"Cycle 1 Day 1, 300 mg QD capsules, fasted patients, Geometric Mean (GeoCV %)",27.1 (49.1); 10 L/h
same,Tlag,"Cycle 1 Day 1, 300 mg QD capsules, fasted patients",0 (0-0.58); 11 h
same,CL/F,"Cycle 1 Day 1, 450 mg QD capsules, fasted patients, Geometric Mean (GeoCV %)",19.6 (42.4); 8 L/h
same,Tlag,"Cycle 1 Day 1, 450 mg QD capsules, fasted patients",0 (0-0.5); 11 h
same,CL/F,"Cycle 1 Day 1, 600 mg QD capsules, fasted patients, Geometric Mean (GeoCV %)",18.3 (68.6); 5 L/h
same,Tlag,"Cycle 1 Day 1, 600 mg QD capsules, fasted patients",0 (0-0.5); 7 h
same,CLss/F,[1],39.1 (56.2); 6 L/h
same,RAUC (accumulation ratio of AUC0-24),[1],1.52 (58.3); 6
same,RCmax (accumulation ratio for Cmax),[1],1.61 (69.3); 6
same,Tlag,"Cycle 1 Day 15, 100 mg QD capsules, fasted patients",0 (0-0); 6 h
same,AUC0-24 (per 1 mg of API),[2],25.6 ng·h/mL/mg
same,AUC0-inf (per 1 mg of API),[2],29.5 ng·h/mL/mg
same,AUC0-t (per 1 mg of API),[2],25.9 ng·h/mL/mg
same,Cmax (per 1 mg of API),[2],2.9 ng/mL/mg
same,CLss/F,[3],29.1 (52.8); 10 L/h
same,RAUC (accumulation ratio of AUC0-24),[3],1.43 (72.9); 10
same,RCmax (accumulation ratio for Cmax),[3],1.28 (118.2); 10
same,Tlag,"Cycle 1 Day 15, 200 mg QD capsules, fasted patients",0 (0-0); 10 h
same,AUC0-24 (per 1 mg of API),[4],34.4 ng·h/mL/mg
same,AUC0-inf (per 1 mg of API),[4],39.8 ng·h/mL/mg
same,AUC0-t (per 1 mg of API),[4],34.6 ng·h/mL/mg
same,Cmax (per 1 mg of API),[4],3.0 ng/mL/mg
same,CLss/F,[5],26.2 (50.5); 10 L/h
same,RAUC (accumulation ratio of AUC0-24),[5],1.27 (38.3); 11
same,RCmax (accumulation ratio for Cmax),[5],1.34 (38.3); 11
same,Tlag,"Cycle 1 Day 15, 300 mg QD capsules, fasted patients",0 (0-0); 11 h
same,AUC0-24 (per 1 mg of API),[6],40.0 ng·h/mL/mg
same,AUC0-inf (per 1 mg of API),[6],42.5 ng·h/mL/mg
same,AUC0-t (per 1 mg of API),[6],40.3 ng·h/mL/mg
same,Cmax (per 1 mg of API),[6],4.0 ng/mL/mg
same,CLss/F,[7],32.1 (52.6); 10 L/h
same,RAUC (accumulation ratio of AUC0-24),[7],0.920 (49); 10
same,RCmax (accumulation ratio for Cmax),[7],1.05 (42.1); 10
same,Tlag,"Cycle 1 Day 15, 450 mg QD capsules, fasted patients",0 (0-0); 10 h
same,AUC0-24 (per 1 mg of API),[8],31.2 ng·h/mL/mg
same,AUC0-inf (per 1 mg of API),[8],38.6 ng·h/mL/mg
same,AUC0-t (per 1 mg of API),[8],31.2 ng·h/mL/mg
same,Cmax (per 1 mg of API),[8],3.1 ng/mL/mg
same,CLss/F,[9],32.7 (78.1); 3 L/h
same,RAUC (accumulation ratio of AUC0-24),[9],0.712 (31.4); 3
same,RCmax (accumulation ratio for Cmax),[9],0.685 (69.2); 3
same,Tlag,"Cycle 1 Day 15, 600 mg QD capsules, fasted patients",0 (0-0); 3 h
same,AUC0-24 (per 1 mg of API),[10],30.6 ng·h/mL/mg
same,AUC0-inf (per 1 mg of API),[10],66.2 ng·h/mL/mg
same,AUC0-t (per 1 mg of API),[10],31.2 ng·h/mL/mg
same,Cmax (per 1 mg of API),[10],2.8 ng/mL/mg
same,AUC0-24 (per 1 mg of API),[11],16.8 ng·h/mL/mg
same,AUC0-inf (per 1 mg of API),[11],21.3 ng·h/mL/mg
same,AUC0-t (per 1 mg of API),[11],16.8 ng·h/mL/mg
same,Cmax (per 1 mg of API),[11],1.78 ng/mL/mg
same,AUC0-24 (per 1 mg of API),[12],23.8 ng·h/mL/mg
same,AUC0-inf (per 1 mg of API),[12],26.37 ng·h/mL/mg
same,AUC0-t (per 1 mg of API),[12],24.1 ng·h/mL/mg
same,Cmax (per 1 mg of API),[12],2.4 ng/mL/mg
same,AUC0-24 (per 1 mg of API),[13],31.6 ng·h/mL/mg
same,AUC0-inf (per 1 mg of API),[13],36.9 ng·h/mL/mg
same,AUC0-t (per 1 mg of API),[13],31.8 ng·h/mL/mg
same,Cmax (per 1 mg of API),[13],3.0 ng/mL/mg
same,AUC0-24 (per 1 mg of API),[14],35.9 ng·h/mL/mg
same,AUC0-inf (per 1 mg of API),[14],51.1 ng·h/mL/mg
same,AUC0-t (per 1 mg of API),[14],35.9 ng·h/mL/mg
same,Cmax (per 1 mg of API),[14],3.3 ng/mL/mg
same,AUC0-24 (per 1 mg of API),[15],37.3 ng·h/mL/mg
same,AUC0-inf (per 1 mg of API),[15],54.8 ng·h/mL/mg
same,AUC0-t (per 1 mg of API),[15],37.2 ng·h/mL/mg
same,Cmax (per 1 mg of API),[15],3.4 ng/mL/mg
same,AUC(0-inf),[16],2130 ng·h/mL
same,Cmax,[16],178 ng/mL
same,half-life,[16],10.2 h
same,AUC(0-t),"female, human, plasma, oral, 100 mg, Cycle 1 Day 1, 100 mg QD capsules, fasted patients, Geometric Mean (GeoCV %), read-out: AUC0-24",1680 ng·h/mL
same,AUC(0-t),"female, human, plasma, oral, 100 mg, Cycle 1 Day 1, 100 mg QD capsules, fasted patients, Geometric Mean (GeoCV %), read-out: AUC0-t",1680 ng·h/mL
